Assay results reported in patent US8716315B2, “Analogs of thalidomide as potential angiogenesis inhibitors” (The United States of America as represented by the …, priority 2001, dated 2014).

What was measured:
rat aortic rings = test: Anti-angiogenic activity utilizing rat aortic rings; assay type: cell-based, rat (Sprague-Dawley); settings: daily dosage of 100 μM, five-day treatment, image analysis vs DMSO control rings; for inhibition at 100 µM: Rattus norvegicus, 120 h, read-out: angiogenesis inhibition activity
Excerpt: The efficacy of selected thalidomide analogs of the present invention was studied by five-day treatment of rat aortic rings (utilizing Sprague-Dawley rats available from Charles River Labs) with varied doses of the analogs. A DMSO control was utilized (FIG. 1). The results, determined using image analysis comparing control rings versus the treated rings (using NIM Image software), of the studies are as follows: […]

Toxicology screen = settings: i.p., single dose
HUVEC = HUVEC MTT assay; assay type: cell-based; settings: for inhibition, growth curves treated vs control wells: at about 72 hours
Method: HUVEC MTT assays were performed for the selected thalidomide analogs of the present invention to determine a rough estimate of the efficacy of such compounds in the inhibition of angiogenesis. For the MTT assay, 1.0 to 2.5×10^3 cells per well were plated in 96-well plates in 0.1 ml medium, in triplicate. After 24 hours, the cells were exposed to treatment for 5 days. One plate was analyzed every 24 hours by the addition of 20 μL of 5 mg/ml MTT solution (available from Sigma of St. Louis, Mo.) in PBS, to each well for 4 hours. The MTT solution was aspirated and 170 μL DMSO was added to each well to dissolve the formazan crystals. The absorbance at 540 nm was measured using a Biokinetics plate reader (available from Bio-Tek Instruments of Winooski, Vt.). Triplicate wells were assayed for each condition. The assay protocol described herein stems from Kruger et al., a protein kinase C inhibitor, inhibits endothelial cell proliferation and angiogenic hypoxic response, Invasion and Metastasis, 18(4): 209-218 (incorporated herein by reference).
The following results for the selected compounds were determined measured utilizing growth curves comparing control wells to treated wells using the MTT assays.

human saphenous veins = test: Anti-angiogenic activity utilizing human saphenous vein; assay type: cell-based; settings: 336 h, daily dosages of 100 μM, 14 day treatment, image analysis, read-out: angiogenesis inhibition activity level
Method: The efficacy of 2-(1-hydroxymethyl-2,6-dioxo-piperidin-3-yl)-1,3-dihydro-2H-isoindole-1,3-dione (CPS11) was studied by 14 day treatment of human saphenous veins (obtained through an IRB-approved protocol, Surgery Brand NCI) with 100 μM doses of the analog. A CAI, carboxyamido-triazole, 12 μg/ml control was utilized.

O=C1c2c(F)c(F)c(F)c(F)c2C(=O)N1c1ccc(F)cc1F [CPS49, 2-(2,4-difluoro-phenyl)-4,5,6,7-tetrafluoro-1H-isoindole-1,3(2H)-dione]
angiogenesis inhibition activity (rat aortic rings): extensive angiogenesis inhibition activity | time to death after treatment (Toxicology screen; 200 mg/kg): ≤ 18 h | toxicology screen outcome (Toxicology screen; 200 mg/kg): lethal dose | inhibition (cytostatic activity), growth curves treated vs control wells (HUVEC; 10 μM): no such activity | inhibition (cytostatic activity), growth curves treated vs control wells (HUVEC; 100 μM): about 90%

CCC1(N2C(=O)c3c(F)c(F)c(F)c(F)c3C2=O)C(=O)NC(=O)N(c2ccccc2)C1=O (centres unmarked) [CPS45, 5-ethyl-1-phenyl-5-(tetrafluorophthalimido)barbituric acid]
inhibition at 100 µM (rat aortic rings): 90% | time to death after treatment (Toxicology screen; 200 mg/kg): ≤ 2.5 h | toxicology screen outcome (Toxicology screen; 200 mg/kg): lethal dose | inhibition (cytostatic activity), growth curves treated vs control wells (HUVEC; 10 μM): > 90% | inhibition (cytostatic activity), growth curves treated vs control wells (HUVEC; 100 μM): > 90%

O=C1NC(=O)C(N2C(=O)c3ccccc3C2=O)CC1O (centres unmarked) [CPS3, 2-(5-hydroxy-2,6-dioxo-piperidin-3-yl)-1H-isoindole-1,3[2H]-dione]
inhibition at 100 µM (rat aortic rings): ~50% | melting point: 195 to 230 °C | inhibition (cytostatic activity), growth curves treated vs control wells (HUVEC; 10 μM): No cytostatic activity | inhibition (cytostatic activity), growth curves treated vs control wells (HUVEC; 100 μM): No cytostatic activity

O=C1c2c(F)c(F)c(F)c(F)c2C(=O)N1c1c[nH]c(=O)[nH]c1=O [CPS48, 5-(tetrafluorophthalimido)pyrimidine-2,4(1H,3H)-dione]
inhibition at 100 µM (rat aortic rings): 90% | inhibition (cytostatic activity), growth curves treated vs control wells (HUVEC; 10 μM): about 85% | inhibition (cytostatic activity), growth curves treated vs control wells (HUVEC; 100 μM): about 85%

CCC1(N2C(=O)c3ccccc3C2=O)C(=O)NC(=O)N(C2CCCCC2)C1=O (centres unmarked) [CPS44, 1-cyclohexyl-5-ethyl-5-phthalimidobarbituric acid]
angiogenesis inhibition activity (rat aortic rings): No inhibition of angiogenesis | inhibition (cytostatic activity), growth curves treated vs control wells (HUVEC; 10 μM): no such activity | inhibition (cytostatic activity), growth curves treated vs control wells (HUVEC; 100 μM): about 50%

O=C1CCC(N2C(=O)c3ccccc3C2=O)C(=O)N1CO (centres unmarked) [CPS11, 2-(1-hydroxymethyl-2,6-dioxo-piperidin-3-yl)-1,3-dihydro-2H-isoindole-1,3-dione]
inhibition at 100 µM (rat aortic rings): 90% | toxicology screen outcome (Toxicology screen; 10 mg/kg): safe | toxicology screen outcome (Toxicology screen; 100 mg/kg): safe | sedation noted (Toxicology screen; 10 and 100 mg/kg): Some amount of sedation | inhibition at 100 µM (human saphenous veins): 90% | inhibition, growth curves treated vs control wells (HUVEC; 10 μM): about 60% | inhibition, growth curves treated vs control wells (HUVEC; 100 μM): > 90%

Cc1ccc(C)c2c1C(=O)N(c1ccc(F)cc1F)C2=O [CPS42, 2-(2,4-difluorophenyl)-4,7-dimethyl-1H-isoindole-1,3(2H)-dione]
sedation noted (Toxicology screen; 200 mg/kg): Slight sedation | time after injection at which sedation was noted (Toxicology screen; 200 mg/kg): ≤ 15 min | toxicology screen outcome (Toxicology screen; 200 mg/kg): safe | inhibition (cytostatic activity), growth curves treated vs control wells (HUVEC; 10 μM): no such activity | inhibition (cytostatic activity), growth curves treated vs control wells (HUVEC; 100 μM): about 44%
